Reference: US20200131669A1, “CYCLIC PEPTIDE COMPOUND HAVING HIGH MEMBRANE PERMEABILITY, AND LIBRARY CONTAINING SAME” (Chugai Seiyaku Kabushiki Kaisha, priority 2017, published 2020)
Starred links: 1 amine or outer side, 2 acyl side, 3 side chain; linkers in the order of their positions; H or OH if unused. Positions of bridges follow the written chain, without caps; N, C: chain ends. Non-standard residues stand in square brackets, D forms with d. Residues, ends and D or L forms follow the SMILES beside them. *: point of attachment. X6 = CN([C@@H](CCN1CCC(F)(F)CC1)C(=O)[*:2])[*:1]; Phe(4-CF3) = N[C@@H](Cc1ccc(C(F)(F)F)cc1)C(=O)O; NMeAla(4-thiazolyl) = CN[C@@H](Cc1cscn1)C(=O)O; 3Pal(6-NMe2) = CN(C)c1ccc(C[C@H](N)C(=O)O)cn1; NMePhe(3-Cl) = CN[C@@H](Cc1cccc(Cl)c1)C(=O)O; X12 = CCCC[C@@H](O)[C@H](N[*:1])C(=O)[*:2]; Tyr(3-F) = N[C@@H](Cc1ccc(O)c(F)c1)C(=O)O; NMeW = CN[C@@H](Cc1c[nH]c2ccccc12)C(=O)O; NMehPhe = CN[C@@H](CCc1ccccc1)C(=O)O; X9 = O=C(CN(CCOc1ccccc1)[*:1])[*:2]; NMeF = CN[C@@H](Cc1ccccc1)C(=O)O; NMeGABA = CN(CCCC(=O)[*:2])[*:1]; NMeI = CC[C@H](C)[C@H](NC)C(=O)O; 4Pal = N[C@@H](Cc1ccncc1)C(=O)O; Butyl(3-Me,3-OH) = CC(C)(O)CC*; NMeD = CN[C@@H](CC(=O)O)C(=O)O; NMeL = CN[C@@H](CC(C)C)C(=O)O; NMeV = CN[C@H](C(=O)O)C(C)C; NMeAbu = CC[C@H](NC)C(=O)O; NMeA = CN[C@@H](C)C(=O)O; Piperidide = C1CCN(*)CC1; dNMeA = CN[C@H](C)C(=O)O; CH2CMe2OH = CC(C)(O)C*; NBuGly = CCCCNCC(=O)O; NPrGly = CCCNCC(=O)O; Sar = CNCC(=O)O; tBu = CC(C)(C)*

Assay: Caco-2 membrane permeability, improved method as used in the following Examples (96-well, 20 to 24 h preincubation)
Assay type: in vitro ADME
Conditions: human, Caco-2, Caco-2
In short: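 Papp (cm/sec) was derived from LC/MS of basal samples collected 180 min after apical dosing in FaSSIF/HBSS pH 6.0 with 1% DMSO, against a basal HBSS pH 7.4 receiver containing 4% BSA. Three-week Caco-2 cultures were first preincubated with compound in DMEM+FaSSIF at 37 °C for 20–24 h.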
With `CCCC[C@@H](O)[C@@H]1NC(=O)[C@H](CC(C)C)N(C)C(=O)[C@H](Cc2ccccc2)N(C)C(=O)[C@H](C)NC(=O)[C@H](Cc2ccccc2)N(C)C(=O)[C@H](CC(C)C)N(C)C(=O)[C@H](C(C)C)NC(=O)[C@H](C)N(C)C(=O)C[C@@H](C(=O)N2CCCCC2)NC(=O)[C@H](CC(C)C)N(C)C(=O)CN(C)C1=O` [pd469] ([NMeA]V[NMeL][NMeF]A[NMeF][NMeL][X12][Sar][NMeL]D-Piperidide; lactam N-11) the Papp A→B at 180 min was 2.5 ×10⁻⁶ cm/s.
Work on `CC(C)C[C@@H]1NC(=O)[C@H](C)N(C)C(=O)C[C@@H](C(=O)N2CCCCC2)NC(=O)[C@H](CC(C)C)N(C)C(=O)CN(C)C(=O)[C@H]([C@@H](C)O)NC(=O)[C@H](CC(C)C)N(C)C(=O)[C@H](CCc2ccccc2)N(C)C(=O)[C@H](COCCC(C)(C)O)NC(=O)[C@H](Cc2ccccc2)N(C)C(=O)[C@H](CC(C)C)N(C)C1=O` [pd437] ([NMeA]L[NMeL][NMeF]S(Butyl(3-Me,3-OH))[NMehPhe][NMeL]T[Sar][NMeL]D-Piperidide; lactam N-11) yielded a Papp A→B at 180 min of 1.3 ×10⁻⁶ cm/s.
`CCCN1CC(=O)N(C)[C@@H](CC(C)C)C(=O)N[C@H](C(=O)N2CCCCC2)CC(=O)N(C)[C@@H](C)C(=O)N[C@@H](CC(C)C)C(=O)N(C)[C@@H](CC(C)C)C(=O)N(C)[C@@H](Cc2ccccc2)C(=O)N[C@@H](COCC(C)(C)O)C(=O)N(C)[C@@H](Cc2ccccc2)C(=O)N(C)[C@@H]([C@@H](C)CC)C(=O)N[C@@H]([C@@H](C)O)C1=O` [pd429] ([NMeA]L[NMeL][NMeF]S(CH2CMe2OH)[NMeF][NMeI]T[NPrGly][NMeL]D-Piperidide; lactam N-11) gave a Papp A→B at 180 min of 3.3 ×10⁻⁶ cm/s.
Compound `CCCCN1CC(=O)N(C)[C@@H](CC(C)C)C(=O)N[C@@H](CC(C)C)C(=O)N(C)[C@@H](Cc2ccccc2)C(=O)N(C)[C@@H](C)C(=O)N[C@H](C(=O)N2CCCCC2)CC(=O)N[C@H](C(C)C)C(=O)N(C)[C@@H](Cc2ccccc2)C(=O)N[C@@H](CC(C)C)C(=O)N(C)[C@@H](CCN2CCC(F)(F)CC2)C(=O)N[C@@H]([C@@H](C)O)C1=O` [pd394] ([dV][NMeF]L[X6]T[NBuGly][NMeL]L[NMeF][NMeA]D-Piperidide; lactam N-11) has a Papp A→B at 180 min of 1.8 ×10⁻⁶ cm/s.
In the case of `CC(C)C[C@@H]1NC(=O)[C@H](CC(C)C)N(C)C(=O)CCCN(C)C(=O)C[C@@H](C(=O)N2CCCCC2)NC(=O)[C@H](CC(C)C)N(C)C(=O)[C@H](CC(C)C)N(C)C(=O)[C@H]([C@@H](C)O)NC(=O)[C@H](CC(C)C)N(C)C(=O)[C@H](Cc2ccc(N(C)C)nc2)NC(=O)[C@H](Cc2ccccc2)N(C)C(=O)[C@H](CC(C)C)N(C)C1=O` [pd397] ([NMeGABA][NMeL]L[NMeL][NMeF][3Pal(6-NMe2)][NMeL]T[NMeL][NMeL]D-Piperidide; lactam N-11), the Papp A→B at 180 min is reported as 1.2 ×10⁻⁶ cm/s.
Work on `CCCCN1CC(=O)N(C)[C@@H](C)C(=O)N[C@@H](COC(C)(C)C)C(=O)N(C)[C@@H](CC(C)C)C(=O)N(CCOc2ccccc2)CC(=O)N[C@H](C(=O)N2CCCCC2)CC(=O)N[C@H](CC(C)C)C(=O)N(C)[C@@H](Cc2ccccc2)C(=O)N[C@@H](CC(C)C)C(=O)N(C)[C@@H](CC)C(=O)N[C@@H]([C@@H](C)O)C1=O` [pd422] ([dL][NMeF]L[NMeAbu]T[NBuGly][NMeA]S(tBu)[NMeL][X9]D-Piperidide; lactam N-11) yielded a Papp A→B at 180 min of 1 ×10⁻⁶ cm/s.
In the case of `CC(C)C[C@H]1C(=O)N[C@@H](COC(C)(C)C)C(=O)N(C)[C@@H](Cc2ccccc2)C(=O)N(C)[C@@H](C(C)C)C(=O)N[C@H](C(=O)N2CCCCC2)CC(=O)N[C@H](C(C)C)C(=O)N(C)[C@@H](CC(C)C)C(=O)N[C@@H](COc2ccccc2Cl)C(=O)N(C)[C@@H](C)C(=O)N[C@@H]([C@@H](C)O)C(=O)N(C)CC(=O)N1C` [pd339], the Papp A→B at 180 min is reported as 2.6 ×10⁻⁶ cm/s.

Same assay, conditions: human, Caco-2, Caco-2 (cm/sec)
In the case of `CC(C)C[C@@H]1NC(=O)[C@H](CC(C)C)N(C)C(=O)C[C@@H](C(=O)N2CCCCC2)NC(=O)[C@H](CC(C)C)N(C)C(=O)CN(C)C(=O)[C@H]([C@@H](C)O)NC(=O)[C@H](Cc2cscn2)N(C)C(=O)[C@H](Cc2ccccc2)N(C)C(=O)[C@H](Cc2ccccc2)NC(=O)[C@H](Cc2ccccc2)N(C)C(=O)[C@H](CC(C)C)N(C)C1=O` [pd228] ([NMeL]L[NMeL][NMeF]F[NMeF][NMeAla(4-thiazolyl)]T[Sar][NMeL]D-Piperidide; lactam N-11), the Papp A→B at 180 min is reported as 0.58 ×10⁻⁶ cm/s.
`CC(C)C[C@@H]1NC(=O)[C@H](Cc2ccccc2)N(C)C(=O)[C@H](CC(C)C)N(C)C(=O)[C@@H](C)N(C)C(=O)C[C@@H](C(=O)N2CCCCC2)NC(=O)[C@H](CC(C)C)N(C)C(=O)[C@H](Cc2ccccc2)N(C)C(=O)[C@H]([C@@H](C)O)NC(=O)[C@H](Cc2ccccc2)N(C)C1=O` [pd223] ([dNMeA][NMeL][NMeF]L[NMeF]T[NMeF][NMeL]D-Piperidide; lactam N-9) gave a Papp A→B at 180 min of 1.1 ×10⁻⁶ cm/s.
With `CC(C)C[C@@H]1NC(=O)[C@H](Cc2c[nH]c3ccccc23)N(C)C(=O)[C@@H](C(C)C)NC(=O)C[C@@H](C(=O)N2CCCCC2)NC(=O)[C@H](CC(C)C)N(C)C(=O)[C@H](CC(C)C)N(C)C(=O)[C@H](COC(C)(C)C)NC(=O)[C@H](CC(C)C)N(C)C(=O)CN(C)C(=O)[C@H]([C@@H](C)O)NC(=O)[C@H](CC(C)C)N(C)C1=O` [pd106] ([dV][NMeW]L[NMeL]T[Sar][NMeL]S(tBu)[NMeL][NMeL]D-Piperidide; lactam N-11) the Papp A→B at 180 min was 0.36 ×10⁻⁶ cm/s.
Work on `CC(C)C[C@H]1C(=O)N[C@@H](COC(C)(C)C)C(=O)N(C)[C@@H](Cc2ccccc2)C(=O)N(C)[C@@H](CC(C)C)C(=O)N[C@H](C(=O)N2CCCCC2)CC(=O)N[C@@H](C)C(=O)N(C)[C@@H](Cc2cccc(Cl)c2)C(=O)N[C@@H](C(C)C)C(=O)N(C)[C@@H](C(C)C)C(=O)N[C@@H]([C@@H](C)O)C(=O)N(C)CC(=O)N1C` [pd154] (A[NMePhe(3-Cl)]V[NMeV]T[Sar][NMeL]S(tBu)[NMeF][NMeL]D-Piperidide; lactam N-11) yielded a Papp A→B at 180 min of 1.4 ×10⁻⁶ cm/s.
Compound `CC(C)C[C@@H]1NC(=O)[C@H](C)N(C)C(=O)C[C@@H](C(=O)N2CCCCC2)NC(=O)[C@H](CC(C)C)N(C)C(=O)CN(C)C(=O)[C@H](Cc2ccc(O)c(F)c2)NC(=O)[C@H](CC(C)C)N(C)C(=O)[C@H](C)N(C)C(=O)[C@H](C)NC(=O)[C@H](Cc2ccccc2)N(C)C(=O)[C@H](CC(C)C)N(C)C1=O` [pd120] ([NMeA]L[NMeL][NMeF]A[NMeA][NMeL][Tyr(3-F)][Sar][NMeL]D-Piperidide; lactam N-11) has a Papp A→B at 180 min of 0.23 ×10⁻⁶ cm/s.
Work on `CC(C)C[C@@H]1NC(=O)[C@H](CC(C)C)N(C)C(=O)[C@H](C)N(C)C(=O)[C@@H](C(C)C)NC(=O)C[C@@H](C(=O)N2CCCCC2)NC(=O)[C@H]([C@@H](C)O)NC(=O)[C@H](C)N(C)C(=O)CN(C)C(=O)[C@H](CC(C)C)N(C)C(=O)[C@H](Cc2c[nH]c3ccccc23)NC(=O)[C@H](Cc2ccccc2)N(C)C1=O` [pd100] ([dV][NMeA][NMeL]L[NMeF]W[NMeL][Sar][NMeA]TD-Piperidide; lactam N-11) yielded a Papp A→B at 180 min of 0.11 ×10⁻⁶ cm/s.
`CC(C)C[C@@H]1NC(=O)C[C@@H](C(=O)N2CCCCC2)N(C)C(=O)[C@H](Cc2ccc(C(F)(F)F)cc2)NC(=O)[C@H](CC(C)C)N(C)C(=O)CN(C)C(=O)[C@H]([C@@H](C)O)NC(=O)[C@H](CC(C)C)N(C)C(=O)[C@H](CC(C)C)N(C)C1=O` [pd151] (L[NMeL][NMeL]T[Sar][NMeL][Phe(4-CF3)][NMeD]-Piperidide; lactam N-8) gave a Papp A→B at 180 min of 3.2 ×10⁻⁶ cm/s.
For `CC(C)C[C@H]1C(=O)N(C)[C@@H](C)C(=O)N(C)[C@@H](Cc2ccccc2)C(=O)N[C@@H]([C@@H](C)O)C(=O)N(C)[C@@H](CC(C)C)C(=O)N[C@@H](Cc2ccc(C(F)(F)F)cc2)C(=O)N2CCC[C@H]2C(=O)N[C@H](C(=O)N2CCCCC2)CC(=O)N1C` [pd135] ([NMeL][NMeA][NMeF]T[NMeL][Phe(4-CF3)]PD-Piperidide; lactam N-8), the Papp A→B at 180 min was 1.3 ×10⁻⁶ cm/s.
For `CC(C)C[C@@H]1NC(=O)[C@H](CC(C)C)N(C)C(=O)[C@@H](CC(C)C)NC(=O)C[C@@H](C(=O)N2CCCCC2)NC(=O)[C@H](CC(C)C)N(C)C(=O)[C@H](Cc2cccc(Cl)c2)N(C)C(=O)[C@H](Cc2ccncc2)NC(=O)[C@H](CC(C)C)N(C)C(=O)CN(C)C(=O)[C@H]([C@@H](C)O)NC(=O)[C@H](CC(C)C)N(C)C1=O` [pd172] ([dL][NMeL]L[NMeL]T[Sar][NMeL][4Pal][NMePhe(3-Cl)][NMeL]D-Piperidide; lactam N-11), the Papp A→B at 180 min was 1.1 ×10⁻⁶ cm/s.
Compound `CC[C@H](C)[C@H]1C(=O)N[C@@H]([C@@H](C)O)C(=O)N(C)CC(=O)N(C)[C@@H](CC(C)C)C(=O)N[C@H](C(=O)N2CCCCC2)CC(=O)N(C)[C@@H](CC(C)C)C(=O)N[C@@H](CC(C)C)C(=O)N(C)[C@@H](CC(C)C)C(=O)N(C)[C@@H](Cc2c[nH]c3ccccc23)C(=O)N[C@@H](CC(C)C)C(=O)N(C)[C@@H](Cc2ccccc2)C(=O)N1C` [pd111] ([NMeL]L[NMeL][NMeW]L[NMeF][NMeI]T[Sar][NMeL]D-Piperidide; lactam N-11) has a Papp A→B at 180 min of 0.16 ×10⁻⁶ cm/s.

Same assay, conditions: human, Caco-2; read-out: Caco-2
With `CC[C@H](C)[C@@H]1NC(=O)[C@H](C)N(C)C(=O)C[C@@H](C(=O)N(C)[C@@H](Cc2ccccc2)C(=O)N[C@@H](C)C(=O)N2CCCCC2)NC(=O)[C@H](Cc2ccccc2)N(C)C(=O)CN(C)C(=O)[C@H]([C@@H](C)O)NC(=O)[C@H](C)N(C)C(=O)[C@H](C(C)C)N(C)C(=O)[C@H](Cc2ccccc2)NC(=O)[C@H](CC(C)C)N(C)C(=O)[C@H](CC(C)C)N(C)C1=O` [pd222] ([NMeA]I[NMeL][NMeL]F[NMeV][NMeA]T[Sar][NMeF]D[NMeF]A-Piperidide; lactam N-11) the Papp A→B at 180 min was 1.1 ×10⁻⁶ cm/s.
